From the supplement of paper PMC4862054
Where “and” joins values, the source holds several entries; their conditions need not be identical. Equal entries are not always repeated.

Each compound was assayed on CAL-51 (assay: normalised viability (% of control), CellTiter-Blue; higher = more viable cells (about 100 = DMSO control)). Settings: 3000 nM; incubation time: 72 h.
Experimental: (§1)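 DSRT, CellTiter-Blue viability, 72 h incubation. Signal is normalised to DMSO and benzethonium chloride controls. Value is the normalised response at dose 8.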

**Q.** How did the normalised viability turn out when `C1CN1c1nc(N2CC2)nc(N2CC2)n1` [Triethylenemelamine] was run?
**A.** 109%

**Q.** `CCCS(=O)(=O)Nc1ccc(F)c(C(=O)c2c[nH]c3ncc(-c4ccc(Cl)cc4)cc23)c1F` [Vemurafenib] was tested. Which normalised viability did it give?
**A.** 107%

**Q.** For `O=C(O)C(=O)O.[NH-][C@@H]1CCCC[C@H]1[NH-].[Pt+2]` [Oxaliplatin], which normalised viability is on record?
**A.** 118%

**Q.** Which normalised viability does the source give for `CCN(CC)CCCC(C)Nc1c2ccc(Cl)cc2nc2ccc(OC)cc12` (stereo not given) [Mepacrine] here?
**A.** 77.8%

**Q.** How did the normalised viability turn out when `Cc1ccc(-c2cc(C(F)(F)F)nn2-c2ccc(S(N)(=O)=O)cc2)cc1` [Celecoxib] was run?
**A.** 99.5%

These compounds were tested on CAL-85-1 in the same assay as above. Settings: 297 nM; incubation time: 72 h.
Experimental: as §1

**Q.** With `CCN(CC)CCCC(C)Nc1c2ccc(Cl)cc2nc2ccc(OC)cc12` (stereo not given) [Mepacrine] as the compound, how does the normalised viability read?
**A.** 87.8%

Same assay, conditions: 300 nM; incubation time: 72 h

**Q.** `O=C(/C=C/c1cccnc1)NCCCCC1CCN(C(=O)c2ccccc2)CC1` [FK-866] was tested. Which normalised viability did it give?
**A.** 54%

**Q.** How did the normalised viability turn out when `CC[C@@H]1C(=O)N(C)c2cnc(Nc3ccc(C(=O)NC4CCN(C)CC4)cc3OC)nc2N1C1CCCC1` [BI 2536] was run?
**A.** 61.8%

Same assay, conditions: 3000 nM; incubation time: 72 h

**Q.** `Nc1nc(F)nc2c1ncn2[C@@H]1O[C@H](CO)[C@@H](O)[C@@H]1O` [Fludarabine] was tested. Which normalised viability did it give?
**A.** 96.7%

**Q.** With `Nc1ncn([C@H]2C[C@H](O)[C@@H](CO)O2)c(=O)n1` [Decitabine] as the compound, how does the normalised viability read?
**A.** 83% and 88.5%

**Q.** Which normalised viability does the source give for `O=C(O)C1(C(=O)O)CCC1.[NH2-].[NH2-].[Pt+2]` [Carboplatin] here?
**A.** 87.7%

**Q.** With `N#Cc1ccc(C(c2ccc(C#N)cc2)n2cncn2)cc1` [Letrozole] as the compound, how does the normalised viability read?
**A.** 90%

**Q.** For `C1CN1c1nc(N2CC2)nc(N2CC2)n1` [Triethylenemelamine], which normalised viability is on record?
**A.** 104%

**Q.** With `CCCS(=O)(=O)Nc1ccc(F)c(C(=O)c2c[nH]c3ncc(-c4ccc(Cl)cc4)cc23)c1F` [Vemurafenib] as the compound, how does the normalised viability read?
**A.** 75.7%

**Q.** Which normalised viability does the source give for `O=C(O)C(=O)O.[NH-][C@@H]1CCCC[C@H]1[NH-].[Pt+2]` [Oxaliplatin] here?
**A.** 84.5%

**Q.** Which normalised viability does the source give for `CCN(CC)CCCC(C)Nc1c2ccc(Cl)cc2nc2ccc(OC)cc12` (stereo not given) [Mepacrine] here?
**A.** 59.5%

**Q.** `Cc1ccc(-c2cc(C(F)(F)F)nn2-c2ccc(S(N)(=O)=O)cc2)cc1` [Celecoxib] was tested. Which normalised viability did it give?
**A.** 77.6%

These compounds were tested on DU-4475 in the same assay as above. Settings: 297 nM; incubation time: 72 h.
Experimental: as §1

**Q.** For `CCN(CC)CCCC(C)Nc1c2ccc(Cl)cc2nc2ccc(OC)cc12` (stereo not given) [Mepacrine], which normalised viability is on record?
**A.** 84%

Same assay, conditions: 300 nM; incubation time: 72 h

**Q.** How did the normalised viability turn out when `O=C(/C=C/c1cccnc1)NCCCCC1CCN(C(=O)c2ccccc2)CC1` [FK-866] was run?
**A.** 2.9%

**Q.** With `CC[C@@H]1C(=O)N(C)c2cnc(Nc3ccc(C(=O)NC4CCN(C)CC4)cc3OC)nc2N1C1CCCC1` [BI 2536] as the compound, how does the normalised viability read?
**A.** 32.9%

Same assay, conditions: 3000 nM; incubation time: 72 h

**Q.** `Nc1nc(F)nc2c1ncn2[C@@H]1O[C@H](CO)[C@@H](O)[C@@H]1O` [Fludarabine] was tested. Which normalised viability did it give?
**A.** 104%

**Q.** For `Nc1ncn([C@H]2C[C@H](O)[C@@H](CO)O2)c(=O)n1` [Decitabine], which normalised viability is on record?
**A.** 69.8% and 78.9%

**Q.** With `O=C(O)C1(C(=O)O)CCC1.[NH2-].[NH2-].[Pt+2]` [Carboplatin] as the compound, how does the normalised viability read?
**A.** 107%

**Q.** Which normalised viability does the source give for `N#Cc1ccc(C(c2ccc(C#N)cc2)n2cncn2)cc1` [Letrozole] here?
**A.** 85.8%

**Q.** How did the normalised viability turn out when `C1CN1c1nc(N2CC2)nc(N2CC2)n1` [Triethylenemelamine] was run?
**A.** 98.7%

**Q.** For `CCCS(=O)(=O)Nc1ccc(F)c(C(=O)c2c[nH]c3ncc(-c4ccc(Cl)cc4)cc23)c1F` [Vemurafenib], which normalised viability is on record?
**A.** 4.66%

**Q.** With `O=C(O)C(=O)O.[NH-][C@@H]1CCCC[C@H]1[NH-].[Pt+2]` [Oxaliplatin] as the compound, how does the normalised viability read?
**A.** 108%

**Q.** How did the normalised viability turn out when `CCN(CC)CCCC(C)Nc1c2ccc(Cl)cc2nc2ccc(OC)cc12` (stereo not given) [Mepacrine] was run?
**A.** 69.1%

**Q.** Which normalised viability does the source give for `Cc1ccc(-c2cc(C(F)(F)F)nn2-c2ccc(S(N)(=O)=O)cc2)cc1` [Celecoxib] here?
**A.** 96.6%

These compounds were tested on CAL-148 in the same assay as above. Settings: 297 nM; incubation time: 72 h.
Experimental: as §1

**Q.** With `CCN(CC)CCCC(C)Nc1c2ccc(Cl)cc2nc2ccc(OC)cc12` (stereo not given) [Mepacrine] as the compound, how does the normalised viability read?
**A.** 73.2%

Same assay, conditions: 300 nM; incubation time: 72 h

**Q.** `O=C(/C=C/c1cccnc1)NCCCCC1CCN(C(=O)c2ccccc2)CC1` [FK-866] was tested. Which normalised viability did it give?
**A.** 45.6%

**Q.** How did the normalised viability turn out when `CC[C@@H]1C(=O)N(C)c2cnc(Nc3ccc(C(=O)NC4CCN(C)CC4)cc3OC)nc2N1C1CCCC1` [BI 2536] was run?
**A.** 41.5%

Same assay, conditions: 3000 nM; incubation time: 72 h

**Q.** For `Nc1nc(F)nc2c1ncn2[C@@H]1O[C@H](CO)[C@@H](O)[C@@H]1O` [Fludarabine], which normalised viability is on record?
**A.** 84.5%

**Q.** For `Nc1ncn([C@H]2C[C@H](O)[C@@H](CO)O2)c(=O)n1` [Decitabine], which normalised viability is on record?
**A.** 81.2% and 73.7%

**Q.** How did the normalised viability turn out when `O=C(O)C1(C(=O)O)CCC1.[NH2-].[NH2-].[Pt+2]` [Carboplatin] was run?
**A.** 86%

**Q.** `N#Cc1ccc(C(c2ccc(C#N)cc2)n2cncn2)cc1` [Letrozole] was tested. Which normalised viability did it give?
**A.** 95.5%

**Q.** For `C1CN1c1nc(N2CC2)nc(N2CC2)n1` [Triethylenemelamine], which normalised viability is on record?
**A.** 85.6%

**Q.** How did the normalised viability turn out when `CCCS(=O)(=O)Nc1ccc(F)c(C(=O)c2c[nH]c3ncc(-c4ccc(Cl)cc4)cc23)c1F` [Vemurafenib] was run?
**A.** 89.1%

**Q.** With `O=C(O)C(=O)O.[NH-][C@@H]1CCCC[C@H]1[NH-].[Pt+2]` [Oxaliplatin] as the compound, how does the normalised viability read?
**A.** 82.8%

**Q.** How did the normalised viability turn out when `CCN(CC)CCCC(C)Nc1c2ccc(Cl)cc2nc2ccc(OC)cc12` (stereo not given) [Mepacrine] was run?
**A.** 56.4%

**Q.** With `Cc1ccc(-c2cc(C(F)(F)F)nn2-c2ccc(S(N)(=O)=O)cc2)cc1` [Celecoxib] as the compound, how does the normalised viability read?
**A.** 89.3%

What follows are compounds tested on CAL-51 in the same assay as above. Settings: 29.7 nM; incubation time: 72 h.
Experimental: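 DSRT, CellTiter-Blue viability, 72 h incubation. Signal is normalised to DMSO and benzethonium chloride controls. Value is the normalised response at dose 6.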

**Q.** For `CCN(CC)CCCC(C)Nc1c2ccc(Cl)cc2nc2ccc(OC)cc12` (stereo not given) [Mepacrine], which normalised viability is on record?
**A.** 86.1%

Same assay, conditions: 30 nM; incubation time: 72 h

**Q.** For `O=C(/C=C/c1cccnc1)NCCCCC1CCN(C(=O)c2ccccc2)CC1` [FK-866], which normalised viability is on record?
**A.** 48.8%

**Q.** For `CC[C@@H]1C(=O)N(C)c2cnc(Nc3ccc(C(=O)NC4CCN(C)CC4)cc3OC)nc2N1C1CCCC1` [BI 2536], which normalised viability is on record?
**A.** 25.8%

Same assay, conditions: 300 nM; incubation time: 72 h

**Q.** With `Nc1nc(F)nc2c1ncn2[C@@H]1O[C@H](CO)[C@@H](O)[C@@H]1O` [Fludarabine] as the compound, how does the normalised viability read?
**A.** 103%
